# In patent US20220081433A1, “CYCLIC SULFAMIDE COMPOUNDS FOR TREATMENT OF HBV” (Assembly Biosciences, Inc., priority 2018, published 2022):
# Test system: HBV
# Experiment: Activity of test compounds on viral production from HepAD38 cells (viral load by qPCR of HBV core sequence)
# Type: cell-based
# Conditions: Hepatitis B virus, 120 h, 5 days, supernatant HBV DNA by qPCR vs DMSO control, read-out: viral load lowering EC50 (Activity)
# Description: Assay Measuring Activity of Test Compounds on Viral Production from HepAD38 Cells
# HepAD38 cells grown in a T-150 flask (Corning, cat#: 430825) with Growth Medium (DMEM/F12 (1:1) (Hyclone, cat#: SH30023.02), 1× Pen/Strep (Invitrogen, cat#: 15140-122), 10% FBS (Tissue Culture Biologics, cat#: 101), 250 μg/mL G418 (Alfa Aesar, cat#: J62671), 1 μg/mL Tetracycline (Teknova, cat#: T3320)) were detached with 0.25% trypsin-EDTA (Invitrogen, cat#: 25200-056). Tetracycline-free treatment medium (15 mL DMEM/F12 (1:1) 1×Pen/step, with 2% FBS, Tet-system approved (Clontech, cat#: 631106) were then added to mix, transferred into a 50 ml conical tube (Falcon, cat#: 21008-918) and spun at 1300 rpm for 5 min. Pelleted cells were then re-suspended/washed with 50 mL of 1×DPBS (Invitrogen, cat#: 14190-136) 2 times and 50 mL treatment medium twice. HepAD38 cells were then re-suspended with 10 mL of treatment medium, syringed and counted. Wells of 96-well clear bottom TC plate (Corning, cat#: 3904) were seeded at 50,000 cells/well in 180 μL of treatment medium, and 20 μL of either 10% DMSO (Sigma, cat#: D4540) as controls or a 10× solution of test compounds in 10% DMSO in treatment media was added for a final compound concentration starting at 10 μM, and plates were incubated in 5% CO2 incubator at 37° C. for 5 days.
# Subsequently viral load production was assayed by quantitative PCR (qPCR) of the HBV core sequence. PCR reaction mixture containing forward primers HBV-f 5′-CTGTGCCTTGGGTGGCTTT-3′ (IDT DNA), Reverse primers HBV-r 5′-[…]-3′ (IDT DNA), Fluorescent TaqMan™ Probes HBV-probe 5′-FAM/AGCTCCAAA/ZEN/[…]/3IABkFQ-3′ (IDT DNA), 10 μL/well of PerfeCTa® qPCR ToughMix® (Quanta Biosciences, Cat#: 95114-05K), and 6 μL/well of DEPC water (Alfa Aesar, cat#: J62087) was prepared. Four μL of supernatant was added to 16 μL of the reaction mixture in a qPCR plate (Applied Biosytems, Cat#: 4309849), sealed with a film (Applied Biosystems, Cat#: 4311971), centrifuged for a few seconds, and subsequently run on an Applied Biosystems VIIA7. The PCR mixture was incubated at 45° C. for 5 min, then 95° C. for 10 min, followed by 40 cycles of 10 seconds at 95° C. and 20 seconds at 60° C. Viral load was quantified against known HBV DNA standards by using ViiA™ 7 Software. Viral load in the supernatant from wells with treated cells were compared against viral load in supernatant from DMSO control wells (≥ 3 per plate). Cell viability assay was performed with CellTiter-Glo Luminescent Cell Viability Assay (Promega, cat#: G7573) with modification. Mixed appropriate amount of CellTiter-Glo (CTG) 1×DPBS in a 1:1 ratio, added 100 uL of the mixture to each well followed completely removal of all supernatant in each well without touching cell surface. Incubated the plate at room temperature for 10 min on an orbital shaker, and then read the plate with a plate reader (TECAN M1000 or Envision). EC50 or CC50 values were calculated through curve-fitting of the four-parameter nonlinear-logistic-regression model (GraphPad Prism or Dotmatics). CC50 values were all >10 μM.
row,Compound,EC50 [nM]
1,"CN1[C@@H](C(=O)Nc2ccc(F)c(Cl)c2)C[C@@H](c2cccc(-c3ccccc3)c2)NS1(=O)=O (single isomer, unassigned) [2-Isomer II]",5000 to 10000
2,"CN1[C@H](C(=O)Nc2ccc(F)c(Cl)c2)C[C@H](c2cccc(-c3ccccc3)c2)NS1(=O)=O (single isomer, unassigned) [2-Isomer I]",< 1000
3,"Cc1cc(-c2cccc([C@@H]3C[C@H](C(=O)Nc4ccc(F)c(Cl)c4)N(C)S(=O)(=O)N3)c2)ccn1 (single isomer, unassigned) [3-Isomer II]",5000 to 10000
4,"Cc1cc(-c2cccc([C@H]3C[C@@H](C(=O)Nc4ccc(F)c(Cl)c4)N(C)S(=O)(=O)N3)c2)ccn1 (single isomer, unassigned) [3-Isomer I]",< 1000
5,"CN1[C@@H](C(=O)Nc2ccc(F)c(Cl)c2)C[C@@H](c2cccc(-c3ccc(C#N)cc3)c2)NS1(=O)=O (single isomer, unassigned) [4-Isomer II]",1000 to 5000
6,"CN1[C@H](C(=O)Nc2ccc(F)c(Cl)c2)C[C@H](c2cccc(-c3ccc(C#N)cc3)c2)NS1(=O)=O (single isomer, unassigned) [4-Isomer I]",< 1000
7,"CN1[C@@H](C(=O)Nc2ccc(F)c(Cl)c2)C[C@@H](c2cccc(-c3ccc(F)cc3Cl)c2)NS1(=O)=O (single isomer, unassigned) [5-Isomer II]",1000 to 5000
8,"CN1[C@H](C(=O)Nc2ccc(F)c(Cl)c2)C[C@H](c2cccc(-c3ccc(F)cc3Cl)c2)NS1(=O)=O (single isomer, unassigned) [5-Isomer I]",< 1000
9,"Cc1ccc(-c2cccc([C@@H]3C[C@H](C(=O)Nc4ccc(F)c(Cl)c4)N(C)S(=O)(=O)N3)c2)c(Cl)c1 (single isomer, unassigned) [6-Isomer II]",1000 to 5000
10,"CC(C)c1ccc(-c2cccc([C@@H]3C[C@H](C(=O)Nc4ccc(F)c(Cl)c4)N(C)S(=O)(=O)N3)c2)cc1 (single isomer, unassigned) [7-Isomer II]",1000 to 5000
11,"CC(C)c1ccc(-c2cccc([C@H]3C[C@@H](C(=O)Nc4ccc(F)c(Cl)c4)N(C)S(=O)(=O)N3)c2)cc1 (single isomer, unassigned) [7-Isomer I]",< 1000
12,"CN1[C@@H](C(=O)Nc2ccc(F)c(Cl)c2)C[C@@H](c2cccc(-c3cccc(C(F)(F)F)c3)c2)NS1(=O)=O (single isomer, unassigned) [8-Isomer II]",5000 to 10000
13,"CN1[C@H](C(=O)Nc2ccc(F)c(Cl)c2)C[C@H](c2cccc(-c3cccc(C(F)(F)F)c3)c2)NS1(=O)=O (single isomer, unassigned) [8-Isomer I]",< 1000
14,"CN1[C@@H](C(=O)Nc2ccc(F)c(Cl)c2)C[C@@H](c2cccc(-c3ccc(Cl)c(Cl)c3)c2)NS1(=O)=O (single isomer, unassigned) [9-Isomer II]",5000 to 10000
15,"CN1[C@H](C(=O)Nc2ccc(F)c(Cl)c2)C[C@H](c2cccc(-c3ccc(Cl)c(Cl)c3)c2)NS1(=O)=O (single isomer, unassigned) [9-Isomer I]",< 1000
16,"Cc1cc(-c2cccc([C@@H]3C[C@H](C(=O)Nc4ccc(F)c(Cl)c4)N(C)S(=O)(=O)N3)c2)ccc1F (single isomer, unassigned) [10 Isomer II]",5000 to 10000

row,Compound,EC50 [nM]
1,"Cc1cc(-c2cccc([C@H]3C[C@@H](C(=O)Nc4ccc(F)c(Cl)c4)N(C)S(=O)(=O)N3)c2)ccc1F (single isomer, unassigned) [10-Isomer I]",< 1000
2,"CN1[C@@H](C(=O)Nc2ccc(F)c(Cl)c2)C[C@@H](c2cccc(-c3cccc(C(=O)O)c3)c2)NS1(=O)=O (single isomer, unassigned) [19-Isomer II]",5000 to 10000
3,"CN1[C@H](C(=O)Nc2ccc(F)c(Cl)c2)C[C@H](c2cccc(-c3cccc(C(=O)O)c3)c2)NS1(=O)=O (single isomer, unassigned) [19-Isomer I]",< 1000
4,"CN1[C@@H](C(=O)Nc2ccc(F)c(Cl)c2)C[C@@H](c2cccc(N3CCOCC3)c2)NS1(=O)=O (single isomer, unassigned) [24-Isomer II]",5000 to 10000
5,"CN1[C@H](C(=O)Nc2ccc(F)c(Cl)c2)C[C@H](c2cccc(N3CCOCC3)c2)NS1(=O)=O (single isomer, unassigned) [24-Isomer I]",< 1000
6,"CN1CCN(c2cccc([C@@H]3C[C@H](C(=O)Nc4ccc(F)c(Cl)c4)N(C)S(=O)(=O)N3)c2)CC1 (single isomer, unassigned) [25-Isomer II]",1000 to 5000
7,"CN1CCN(c2cccc([C@H]3C[C@@H](C(=O)Nc4ccc(F)c(Cl)c4)N(C)S(=O)(=O)N3)c2)CC1 (single isomer, unassigned) [25-Isomer I]",< 1000
8,"CN1[C@@H](C(=O)Nc2ccc(F)c(Cl)c2)C[C@@H](c2cccc(-n3ccnc3)c2)NS1(=O)=O (single isomer, unassigned) [27-Isomer II]",5000 to 10000
9,"CN1[C@H](C(=O)Nc2ccc(F)c(Cl)c2)C[C@H](c2cccc(-n3ccnc3)c2)NS1(=O)=O (single isomer, unassigned) [27-Isomer I]",< 1000
10,"CN1C(C(=O)Nc2ccc(F)c(Cl)c2)CC(c2cccc(-c3ccccc3)c2)NS1(=O)=O (centres unmarked) [Example 2, 5-([1,1-Biphenyl]-3-yl)-N-(3-chloro-4-fluorophenyl)-2-methyl-1,2,6-thiadiazinane-3-carboxamide 1,1-dioxide]",< 1000
11,"Cc1cc(-c2cccc(C3CC(C(=O)Nc4ccc(F)c(Cl)c4)N(C)S(=O)(=O)N3)c2)ccn1 (centres unmarked) [Example 3, N-(3-Chloro-4-fluorophenyl)-2-methyl-5-(3-(2-methylpyridin-4-yl)phenyl)-1,2,6-thiadiazinane-3-carboxamide 1,1-dioxide]",< 1000
12,"CN1C(C(=O)Nc2ccc(F)c(Cl)c2)CC(c2cccc(-c3ccc(C#N)cc3)c2)NS1(=O)=O (centres unmarked) [Example 4, N-(3-Chloro-4-fluorophenyl)-5-(4′-cyano-[1,1′-biphenyl]-3-yl)-2-methyl-1,2,6-thiadiazinane-3-carboxamide 1,1-dioxide]",< 1000
13,"CN1C(C(=O)Nc2ccc(F)c(Cl)c2)CC(c2cccc(-c3ccc(F)cc3Cl)c2)NS1(=O)=O (centres unmarked) [Example 5, 5-(2′-Chloro-4′-fluoro-[1,1′-biphenyl]-3-yl)-N-(3-Chloro-4-fluorophenyl)-2-methyl-1,2,6-thiadiazinane-3-carboxamide 1,1-dioxide]",< 1000
14,"Cc1ccc(-c2cccc(C3CC(C(=O)Nc4ccc(F)c(Cl)c4)N(C)S(=O)(=O)N3)c2)c(Cl)c1 (centres unmarked) [Example 6, 5-(2′-Chloro-4′-methyl-[1,1′-biphenyl]-3-yl)-N-(3-Chloro-4-fluorophenyl)-2-methyl-1,2,6-thiadiazinane-3-carboxamide 1,1-dioxide]",< 1000
15,"CC(C)c1ccc(-c2cccc(C3CC(C(=O)Nc4ccc(F)c(Cl)c4)N(C)S(=O)(=O)N3)c2)cc1 (centres unmarked) [Example 7, N-(3-Chloro-4-fluorophenyl)-5-(4′-isopropyl-[1,1′-biphenyl]-3-yl)-2-methyl-1,2,6-thiadiazinane-3-carboxamide 1,1-dioxide]",< 1000
16,"CN1C(C(=O)Nc2ccc(F)c(Cl)c2)CC(c2cccc(-c3cccc(C(F)(F)F)c3)c2)NS1(=O)=O (centres unmarked) [Example 8, N-(3-Chloro-4-fluorophenyl)-2-methyl-5-(3′-(trifluoromethyl)-[1,1′-biphenyl]-3-yl)-1,2,6-thiadiazinane-3-carboxamide 1,1-dioxide]",< 1000
